Reference: patent US8119681B2, “2-[1-phenyl-5-hydroxy or methoxy-4alpha-methyl-hexahydrocyclopenta [ƒ]indazole-5-YL]ethyl phenyl derivatives as glucocorticoid receptor ligands” (Merck Sharp & Dohme Corp., priority 2006, dated 2012)

Tests used:
[1] = biological target: T1, human GR (Homo sapiens, UniProt P04150); assay: Trans-Activation Modulation of Glucocorticoid Receptor (GRAMMER), MMTV-LUC reporter gene; format: cell-based; design: endogenous in cells; settings: for Emax: A549, read-out: Transactivation A549 Cells GRAMMER Emax (%); for EC50: Table 1, A549 cells, IP = inflection point, read-out: Transactivation A549 Cells GRAMMER IP
T1 sequence (P04150 1-777): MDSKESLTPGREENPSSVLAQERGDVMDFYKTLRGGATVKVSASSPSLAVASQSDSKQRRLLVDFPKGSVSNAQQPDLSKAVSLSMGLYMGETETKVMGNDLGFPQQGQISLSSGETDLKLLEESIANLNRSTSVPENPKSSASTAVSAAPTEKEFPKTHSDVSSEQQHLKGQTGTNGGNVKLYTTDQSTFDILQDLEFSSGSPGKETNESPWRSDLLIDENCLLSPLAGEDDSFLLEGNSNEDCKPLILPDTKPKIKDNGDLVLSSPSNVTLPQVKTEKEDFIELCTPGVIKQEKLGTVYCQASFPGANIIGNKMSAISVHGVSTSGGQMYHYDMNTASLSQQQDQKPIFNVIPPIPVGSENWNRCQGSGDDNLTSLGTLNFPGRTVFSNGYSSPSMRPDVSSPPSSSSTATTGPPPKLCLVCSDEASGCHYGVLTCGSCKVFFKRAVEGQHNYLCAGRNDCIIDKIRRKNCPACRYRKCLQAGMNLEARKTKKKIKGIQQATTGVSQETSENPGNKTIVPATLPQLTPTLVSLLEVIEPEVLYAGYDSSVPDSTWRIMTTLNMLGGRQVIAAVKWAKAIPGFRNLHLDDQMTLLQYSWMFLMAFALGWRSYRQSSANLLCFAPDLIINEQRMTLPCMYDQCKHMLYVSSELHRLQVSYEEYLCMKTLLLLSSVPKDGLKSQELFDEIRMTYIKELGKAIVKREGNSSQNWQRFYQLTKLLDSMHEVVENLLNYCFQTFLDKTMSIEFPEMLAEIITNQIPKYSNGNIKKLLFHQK

[2] = biological target: T1, human GR; assay: as above; format: cell-based; design: endogenous in cells; settings: Table 1, Emax relative to 300 nM dexamethasone

| Emax [1] [%] | EC50 [1] [nM] | SMILES | Transactivation A549 Cells GRAMMER Emax (%) [2] [%] |
| --- | --- | --- | --- |
| 49 | 55 | Cc1cccc(CC[C@]2(O)CCC3=Cc4c(cnn4-c4cccc(F)c4)C[C@@]32C)c1C(N)=O [Example 191, 2-{2-[(4αS,5R)-1-(3-fluorophenyl)-5-hydroxy-4α-methyl-1,4,4α,5,6,7-hexahydrocyclopenta[f]indazol-5-yl]ethyl}-6-methylbenzamide] |  |
| 38 | 99 | C[C@]12Cc3cnn(-c4ccc(F)cc4)c3C=C1CC[C@@]2(O)CCc1cccc(F)c1CC(N)=O [Example 194, 2-(2-fluoro-6-{2-[(4αS,5R)-1-(4-fluorophenyl)-5-hydroxy-4α-methyl-1,4,4α,5,6,7-hexahydrocyclopenta[f]indazol-5-yl]ethyl}phenyl)acetamide] |  |
| 46 | 249 | C[C@]12Cc3cnn(-c4ccc(F)cc4)c3C=C1CC[C@@]2(O)CCc1cccc(Cl)c1CC(N)=O [Example 197, 2-(2-chloro-6-{2-[(4αS,5R)-1-(4-fluorophenyl)-5-hydroxy-4α-methyl-1,4,4α,5,6,7-hexahydrocyclopenta[f]indazol-5-yl]ethyl}phenyl)acetamide] |  |
| 36 | 83 | CCC(O)(C(N)=O)c1ccccc1CC[C@]1(O)CCC2=Cc3c(cnn3-c3ccc(F)cc3)C[C@@]21C (stereo partly drawn) [Example 199, 2-(2-{2-[(4αS,5R)-1-(4-fluorophenyl)-5-hydroxy-4α-methyl-1,4,4α,5,6,7-hexahydrocyclopenta[f]indazol-5-yl]ethyl}phenyl)-2-hydroxybutanamide] |  |
| 40 | 47 | CC(C)C(O)(C(N)=O)c1ccccc1CC[C@]1(O)CCC2=Cc3c(cnn3-c3ccc(F)cc3)C[C@@]21C (stereo partly drawn) [Example 201, 2-(2-{2-[(4αS,5R)-1-(4-fluorophenyl)-5-hydroxy-4α-methyl-1,4,4α,5,6,7-hexahydrocyclopenta[f]indazol-5-yl]ethyl}phenyl)-2-hydroxy-3-methylbutanamide] |  |

More lines, now with the values behind:

| SMILES | Emax [1] [%] | EC50 [1] [nM] | Transactivation A549 Cells GRAMMER Emax (%) [2] [%] |
| --- | --- | --- | --- |
| CC(=O)Cc1ccccc1CC[C@]1(O)CCC2=Cc3c(cnn3-c3ccc(F)cc3)C[C@@]21C [Example 157, 1-(2-{2-[(4αS,5R)-1-(4-fluorophenyl)-5-hydroxy-4α-methyl-1,4,4α,5,6,7-hexahydrocyclopenta[f]indazol-5-yl]ethyl}phenyl)acetone] | 45 | 240 |  |
| C[C@]12Cc3cnn(-c4ccc(F)cc4)c3C=C1CC[C@@]2(O)CCc1ccc(F)cc1C(N)=O [Example 159, 5-fluoro-2-{2-[(4αS,5R)-1-(4-fluorophenyl)-5-hydroxy-4α-methyl-1,4,4α,5,6,7-hexahydrocyclopenta[f]indazol-5-yl]ethyl}benzamide] | 37 | 197 |  |
| C[C@]12Cc3cnn(-c4ccc(F)cc4)c3C=C1CC[C@@]2(O)/C=C/c1ccccc1S(N)(=O)=O [Example 160, 2-{(E)-2-[(4αS,5R)-1-(4-fluorophenyl)-5-hydroxy-4α-methyl-1,4,4α,5,6,7-hexahydrocyclopenta[f]indazol-5-yl]vinyl}benzenesulfonamide] |  | 118 | 30 |
| C[C@]12Cc3cnn(-c4ccc(F)cc4)c3C=C1CC[C@@]2(O)CCc1ccc(F)cc1C#N [Example 163, 5-fluoro-2-{2-[(4αS,5R)-1-(4-fluorophenyl)-5-hydroxy-4α-methyl-1,4,4α,5,6,7-hexahydrocyclopenta[f]indazol-5-yl]ethyl}benzonitrile] | 48 | 103 |  |
| C[C@]12Cc3cnn(-c4ccc(F)c(F)c4)c3C=C1CC[C@@]2(O)CCc1cccc(F)c1C(N)=O [Example 168, 2-{2-[(4α,5R)-1-(3,4-difluorophenyl)-5-hydroxy-4α-methyl-1,4,4α,5,6,7-hexahydrocyclopenta[f]indazol-5-yl]ethyl}-6-fluorobenzamide] | 58 | 53 |  |
| C[C@]12Cc3cnn(-c4ccc(F)cc4)c3C=C1CC[C@@]2(O)CCc1ccc(Cl)cc1C(N)=O [Example 170, 5-chloro-2-{2-[(4αS,5R)-1-(4-fluorophenyl)-5-hydroxy-4α-methyl-1,4,4α,5,6,7-hexahydrocyclopenta[f]indazol-5-yl]ethyl}benzamide] | 24 | 234 |  |
| C[C@]12Cc3cnn(-c4ccc(F)c(F)c4)c3C=C1CC[C@@]2(O)CCc1ccccc1C(N)=O [Example 172, 2-{2-[(4αS,5R)-1-(3,4-difluorophenyl)-5-hydroxy-4α-methyl-1,4,4α,5,6,7-hexahydrocyclopenta[f]indazol-5-yl]ethyl}benzamide] | 41 | 162 |  |
| Cc1ccc(C(N)=O)c(CC[C@]2(O)CCC3=Cc4c(cnn4-c4ccc(F)cc4)C[C@@]32C)c1 [Example 174, 2-{2-[(4αS,5R)-1-(4-fluorophenyl)-5-hydroxy-4α-methyl-1,4,4α,5,6,7-hexahydrocyclopenta[f]indazol-5-yl]ethyl}-4-methylbenzamide] | 36 | 147 |  |
| C[C@]12Cc3cnn(-c4ccc(Cl)cc4)c3C=C1CC[C@@]2(O)CCc1cccc(F)c1C(N)=O [Example 185, 2-{2-[(4αS,5R)-1-(4-chlorophenyl)-5-hydroxy-4α-methyl-1,4,4α,5,6,7-hexahydrocyclopenta[f]indazol-5-yl]ethyl}-6-fluorobenzamide] | 39 | 144 |  |
| COc1cccc(CC[C@]2(O)CCC3=Cc4c(cnn4-c4ccc(F)cc4)C[C@@]32C)c1C(N)=O [Example 189, 2-{2-[(4αS,5R)-1-(4-fluorophenyl)-5-hydroxy-4α-methyl-1,4,4α,5,6,7-hexahydrocyclopenta[f]indazol-5-yl]ethyl}-6-methoxybenzamide] | 49 | 28 |  |
